Here are results for five compounds from patent publication US20030207843A1, “Treatment of drug-resistant human immunodeficiency virus infection” (priority 1999, published 2003).

For assay [1], the system named is HIV-1LAI 4XAZT (D67N, K70R, T215Y, K219Q). Kind of assay: p24 reduction assay in MT-2 cells, 4XAZT. Format: cell-based. How it is done: (§1) Cells. MT-2 cells (AIDS Research and Reference Reagent Program, National Institute of Allergy and Infectious Diseases, National Institutes of Health) were maintained in RPMI 1640 supplemented with 10% fetal bovine serum (FBS; JRH Biosciences, Lenexa, Kans.), 10 mM HEPES buffer, 50 IU/ml penicillin and 50 μg/ml streptomycin.
(§2) Antiviral Susceptibility Assays. The antiviral activity of each compound was determined by inoculating MT-2 cells with HIV-1LAI at a multiplicity of infection (MOI) of 0.01 TCID50/cell, followed by incubation in the presence of three-fold serial drug dilutions (3 wells per dilution) (see Mellors, et. al., Antimicrob. Agents Chemother. 39:1087-1092). Five or seven days after infection, culture supernatants were harvested, lysed with 0.5% triton-X 100 and assayed for p24 antigen concentration using a commercial ELISA assay (DuPont, NEN Products, Wilmington, Del.). The antiviral activity of the compounds is expressed as the IC50, which is the concentration required to inhibit 50% of p24 antigen production. The fold-resistance of a test virus is calculated by dividing the IC50 of the test virus by the IC50 of the HIV-1LAI control virus.
(§3) Generation of Mutant Recombinant HIV-1. HIV-1 containing the desired mutations were generated by oligonucleotide directed mutagenesis (Altered Sites II, Promega) as previously described (Mellors, et. al., Molecular Pharm. 41:446-451). After mutagenesis, mutant RT was subcloned into the pxxHIV-1LAI cloning vector using the silent XmaI and XbaI restriction sites located at the 5′ and 3′ ends of RT. Clones were DNA sequenced to verify the presence of the desired mutation(s) and electroporated into MT-2 cells as described above to generate infectious mutant recombinant HIV-1.
(§4) Mutant RT was generated via oligonucleotide-directed mutagenesis and ligated into the pXXHIV-1LAI cloning vector. Cloning was facilitated by the presence of two silent restriction sites at the 5′ and 3′ ends (Xma1 and Xba1, respectively) of pXXHIV-1LAI RT. Infectious mutant recombinant HIV-1 was generated by electroporating MT-2 cells with mutated pXXHIV-1LAI clones. The presence of the desired mutations was verified by DNA sequencing.
The multi-drug resistant HIV-1 strains, 11163p1 and 11588p1, are human clinical isolates having the RT mutations indicated. HIV-1 strains treated with the lipid analogs of the present invention include wild type, e.g., xxLAI, and the like, single mutation, e.g., xxLAI MI 84V (resistant to 3TC), xxLAI L74V (resistant to ddI and ddC), xxLAI K65R (resistant to ddI, ddC, DAPD, DXG, tenofovir, and adefovir), xxLAI T215Y (resistant to AZT), and the like, double mutations, e.g., xxLAI M41 L/T215Y (resistant to AZT), xxLAI MI 84V/T215Y (resistant to 3TC and AZT), and the like, and multiple mutations, e.g., xxLAI 4XAZT ((D67N, K70R, T215Y, K219Q) resistant to AZT)), xxLAI 4XAZT/M184V ((D67N, K70R, M 184V, T215Y, K219Q) resistant to AZT and 3TC), xxLAI M5456-12 (AZT+NNRTI resistant: D67N, K70R, K103N, T215Y), xxLAI G2-3g (AZT/3TC co-resistant: M41L, D67N, M184V, H208Y, L210W, R211K, L214F, T215Y, 1293V, E297A), 11163 (multinucleoside resistant virsus: M41L, A62V, V751, F77L, K103N, F116Y, Q151M, Y181C, M184V), 11588 (multinucleoside resistant virsus: A62V, K65R, K70R, V751, F77L, F116Y, Q151M, M184V, K219Q), and the like.

Another assay relates to HIV-1LAI Q161L. The assay can be described thus: p24 reduction assay in MT-2 cells, Q161L. The settings on record: Table 7; for EC50: Q161L; for Fold-resistance: Q161L relative to wild type virus. It counts as cell-based. How it is done:
as §1, §2, §3, §4
Invention compounds were also evaluated against a panel of HIV-1LAI derived recombinants resistant to PFA and the PFA invention compounds, as shown in Table 7.

The next assay relates to MT-2 cells. The assay can be described thus: In vitro selectivity index in MT-2 cells. The settings on record: (50% cytotoxic dose/50% effective dose)×100. Format: cell-based. How it is done: The in vitro selectivity indexes for PFA and lipid analogs of PFA were determined in MT-2 cells and are as follows:
Note that the selectivity index ((50% cytotoxic dose/50% effective dose)×100) is much greater for the lipid analogs of PFA than for PFA itself. Since the lipid analogs have a much greater oral absorption than PFA, they may be given orally for controlling replication of drug-resistant HIV either alone or in combination with one or more antiviral agents. AZT is especially preferred in combination with the lipid analogs of PFA.

For assay [2], the system named is 11163p3 (multinucleoside resistant clinical isolate). Kind of assay: p24 reduction assay in MT-2 cells, 11163p3. It counts as cell-based, HIV-1. The conditions noted are these: Table 4; for EC50: 11163p3, mean ± SD; for Fold-resistance: 11163p3 relative to wild type virus. As to the method: as §1, §2
The MNR panel consisted of a virus containing the mutations V75I, F77L, F116Y and […], a virus containing the T69S[SA insert], and a clinical isolate carrying the classic MNR genotype (62V/751/77L/116Y/151M). Each of the PFA invention compounds retained potency against these viruses with fold resistance values of <2.

The mark [3] stands for this setting: Table 1, 4xAZT, MOI 0.01, read-out: EC50.
[4] abbreviates: Table 5, 4XAZT relative to wild type virus.
Setting [5] is: Table 5, 4XAZT, mean ± SD, read-out: EC50.
Where [6] appears, read: Table 7, 4XAZT relative to wild type virus.
The mark [7] stands for this setting: Human immunodeficiency virus 1, MT2.

Where two headings read alike, the source gives them in different places. Where only a bound is given, the exact number is not on record here.

The EC50 is the concentration needed to bring the measured effect to its halfway point. In the case of `Cc1cn([C@H]2C[C@H](N=[N+]=[N-])[C@@H](CO)O2)c(=O)[nH]c1=O` [AZT, 3′-Azido-3′-deoxythymidine], in assay [1] (Human immunodeficiency virus 1, MT2, Table 8, 4XAZT, read-out: AZT EC50), the EC50 was 290 ± 114 nM. In addition, in assay [1] (Table 8, 4XAZT relative to wild type virus), the Fold resistance came to 7.3.

Turning to `CCCCCCCCCCCCCCCCCCOC[C@H](COP(=O)(O)C(=O)O)OCC` [EB-PFA, 1-O-octadecyl-2-O-ethyl-sn-glycero-3-PFA], the EC50 in the assay on HIV-1LAI Q161L worked out at 6730 nM; in assay [2] it was 500 ± 60 nM; in assay [1] (setting [3]) it was 330 nM; in assay [1] (setting [5]), 340 ± 240 nM; in assay [1] (Table 7, 4XAZT, read-out: EC50), 340 nM. Moreover, the Fold-resistance was 0.04 (7.5) in the assay with HIV-1LAI Q161L, “(0.8)” in assay [2], “(0.5)” in assay [1] (setting [4]) and 0.24 (0.5) in assay [1] (setting [6]). Also, the “Selectivity Index” value in the assay with MT-2 cells turned out to be 1905.

Take `CCCCCCCCCCCCCCCCCCOC[C@@H](O)COP(=O)(O)C(=O)O` [B-PFA, 1-O-octadecyl-sn-glycero-3-PFA]: the EC50 in the assay on HIV-1LAI Q161L was > 30000 nM; in assay [2], 1100 ± 530 nM; in assay [1] (setting [3]), 1250 nM; in assay [1] (setting [5]), 1470 ± 630 nM; in assay [1] (Table 7, 4XAZT, read-out: EC50) it was 1470 nM. Also, the Fold-resistance result with HIV-1LAI Q161L is “(>17.2)”; in assay [2] it was “(0.6)”; in assay [1] (setting [4]), “(0.8)”; in assay [1] (setting [6]), 0.63 (0.8). Besides, in the assay with MT-2 cells, the “Selectivity Index” value is 781.

As to `O=C(O)P(=O)(O)O` [PFA, phosphonoformate, reference compound], the EC50 in the assay with HIV-1LAI Q161L (setting [7]) is 115000 nM; in assay [2] (setting [7]), 15500 ± 5040 nM; in assay [1] (Human immunodeficiency virus 1, MT2, Table 1, 4xAZT, MOI 0.01, read-out: EC50), 8820 nM; in assay [1] (Human immunodeficiency virus 1, MT2, Table 5, 4XAZT, mean ± SD, read-out: EC50), 12700 ± 8070 nM; in assay [1] (Human immunodeficiency virus 1, MT2, Table 7, 4XAZT, read-out: EC50) it was 12700 nM. For the same compound, the Fold-resistance is reported as 14.14 (8.8) in the assay with HIV-1LAI Q161L, “(0.9)” in assay [2], “(0.7)” in assay [1] (setting [4]) and 8.07 (0.7) in assay [1] (setting [6]). Moreover, in the assay on MT-2 cells, the “Selectivity Index” value is on record as 137.

In the case of `CCCCCCCCCCCCCCCCCCOC[C@H](COP(=O)(O)C(=O)O)OC` [MB-PFA, 1-O-octadecyl-2-O-methyl-sn-glycero-3-PFA], the EC50 in the assay with HIV-1LAI Q161L worked out at 8780 nM; in assay [2], 400 ± 280 nM; in assay [1] (setting [3]), 460 nM; in assay [1] (setting [5]), 580 ± 220 nM; in assay [1] (Table 7, 4XAZT, read-out: EC50), 580 nM. Moreover, the Fold-resistance with HIV-1LAI Q161L was 1.58 (11.4); in assay [2] it was “(0.9)”; in assay [1] (setting [4]), “(1.2)”; in assay [1] (setting [6]) it was 0.22 (1.2). Also, the “Selectivity Index” value in the assay on MT-2 cells stood at 953.
